# Experimental data reported in patent US20250163104A1, “MACROCYCLIC IMMUNOMODULATORS” (priority 2021, published 2025).
# Where a SMILES comes first, the peptide text is derived from it. Bridges are numbered along the chain shown (N, C = ends). [ ]: non-standard residue; d: D form. The star is where a group is joined. ξ: configuration not given here. Phe(4-COOH) = N[C@@H](Cc1ccc(C(=O)O)cc1)C(=O)O; Phe(4-CH2NH2) = NCc1ccc(C[C@H](N)C(=O)O)cc1; Bip = N[C@@H](Cc1ccc(-c2ccccc2)cc1)C(=O)O; Phe(3-Me) = Cc1cccc(C[C@H](N)C(=O)O)c1; Phe(2-F) = N[C@@H](Cc1ccccc1F)C(=O)O; Val(3-OH) = CC(C)(O)[C@H](N)C(=O)O; 4Pal = N[C@@H](Cc1ccncc1)C(=O)O; Cha = N[C@@H](CC1CCCCC1)C(=O)O; Cit = NC(=O)NCCC[C@H](N)C(=O)O; Ile(3ξ) = CCC(C)[C@H](N)C(=O)O; Thr(3ξ) = CC(O)[C@H](N)C(=O)O; Carboxymethyl = O=C(O)C*; Orn = NCCC[C@H](N)C(=O)O; Pra = C#CC[C@H](N)C(=O)O; Dab = NCC[C@H](N)C(=O)O; Dap = NC[C@H](N)C(=O)O
# Target: T1, human PD-1 / PD-L1-Ig binding on Jurkat cell line over-expressing human PD-1 (Jurkat-PD-1) (Homo sapiens, UniProt Q15116)
# T1 construct: expressed in transfected cells; host or cells: Jurkat
# T1 sequence (Q15116 25-288): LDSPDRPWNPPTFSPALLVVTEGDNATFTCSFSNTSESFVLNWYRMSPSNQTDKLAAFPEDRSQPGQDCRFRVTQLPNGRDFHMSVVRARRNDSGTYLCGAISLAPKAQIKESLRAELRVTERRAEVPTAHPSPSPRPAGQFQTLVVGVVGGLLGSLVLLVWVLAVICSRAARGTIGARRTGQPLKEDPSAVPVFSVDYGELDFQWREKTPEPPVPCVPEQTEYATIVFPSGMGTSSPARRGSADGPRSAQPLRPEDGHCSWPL
# Test: Jurkat-PD-1 Cell Binding High-Content Screening Assay (CBA)
# Type: cell-based
# Conditions: Jurkat-PD-1 cells, PE-labeled PD-L1-Ig 20 nM final; read-out: Jurkat HPD1_PDL1 IC50
# Method in brief: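 Read-out: high-content imaging of PE-tagged PD-L1-Ig bound to Jurkat cells overexpressing human PD-1, after fixation with 4% paraformaldehyde and Hoechst 33342 nuclear staining. Ligand was used at 20 nM final for 1 hour, after a 2 h compound exposure at 37° C in serum-containing DMEM.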
row,IC50 [nM],SMILES
1,14,CC(C)C[C@@H]1NC(=O)[C@H](Cc2c[nH]c3ccccc23)NC(=O)[C@H](CC(=O)O)NC(=O)[C@H](Cc2ccc(OCC(=O)O)cc2)NC(=O)[C@H](CCN)NC(=O)CSC[C@@H](C(=O)N[C@@H](CC(N)=O)C(N)=O)NC(=O)[C@H](CO)NC(=O)[C@H](C(C)C)NC(=O)[C@H](CC2CCCCC2)NC(=O)[C@H](CCN)NC(=O)[C@@H](CC(C)C)NC(=O)[C@H](CCCN)NC(=O)[C@H](C(C)O)NC(=O)[C@H](Cc2ccc(-c3ccccc3)cc2)NC1=O (stereo partly drawn) [Compound 2558] ({CH2CO}-[Dab]Y(Carboxymethyl)DWL[Bip][Thr(3ξ)][Orn][dL][Dab][Cha]VSCN-NH2; thioether N-14)
2,70.6,CCC(C)[C@@H]1NC(=O)[C@H](Cc2ccc(-c3ccccc3)cc2)NC(=O)[C@H](C(C)C)NC(=O)[C@H](Cc2c[nH]c3ccccc23)NC(=O)[C@H](CC(=O)O)NC(=O)[C@H](Cc2ccc(O)cc2)NC(=O)[C@H](Cc2ccncc2)NC(=O)CSC[C@@H](C(=O)N[C@@H](C)C(N)=O)NC(=O)[C@H](C(C)O)NC(=O)[C@H](C(C)C)NC(=O)[C@H](CC2CCCCC2)NC(=O)[C@H](CC(N)=O)NC(=O)[C@@H](CC(C)C)NC(=O)[C@H](Cc2ccc(CN)cc2)NC1=O (stereo partly drawn) [Compound 2506] ({CH2CO}-[4Pal]YDWV[Bip][Ile(3ξ)][Phe(4-CH2NH2)][dL]N[Cha]V[Thr(3ξ)]CA-NH2; thioether N-14)
3,53.4,CC(C)C[C@H]1NC(=O)[C@H](CCCN)NC(=O)[C@H](CCCNC(N)=O)NC(=O)[C@H](Cc2ccc(-c3ccccc3)cc2)NC(=O)[C@H](C(C)C)NC(=O)[C@H](Cc2c[nH]c3ccccc23)NC(=O)[C@H](CC(=O)O)NC(=O)[C@H](Cc2cccc3ccccc23)NC(=O)[C@H](CN)NC(=O)CSC[C@@H](C(=O)N[C@@H](C)C(N)=O)NC(=O)[C@H]([C@@H](C)O)NC(=O)[C@H](C(C)C)NC(=O)[C@H](CC2CCCCC2)NC(=O)[C@H](CCN)NC1=O [Compound 2115]
4,33.3,C#CC[C@H](NC(=O)[C@@H]1CSCC(=O)N[C@@H](CCN)C(=O)N[C@@H](Cc2ccc(OCC(=O)O)cc2)C(=O)N[C@@H](CC(=O)O)C(=O)N[C@@H](Cc2cccc(C)c2)C(=O)N[C@@H](Cc2ccc(OCC(=O)O)cc2)C(=O)N[C@@H](Cc2ccc(-c3ccccc3)cc2)C(=O)N[C@@H](Cc2ccc(OCC(=O)O)cc2)C(=O)N[C@@H](CCCN)C(=O)N[C@H](CC(C)C)C(=O)N[C@@H](CCN)C(=O)N[C@@H](CC2CCCCC2)C(=O)N[C@@H](C(C)(C)O)C(=O)N[C@@H](CCCN)C(=O)N1)C(=O)O [Compound 2686] ({CH2CO}-[Dab]Y(Carboxymethyl)D[Phe(3-Me)]Y(Carboxymethyl)[Bip]Y(Carboxymethyl)[Orn][dL][Dab][Cha][Val(3-OH)][Orn]C[Pra]-OH; thioether N-14)

# More lines, now with the values behind:
row,SMILES,IC50 [nM]
1,CC(C)C[C@H]1NC(=O)[C@H](CCCN)NC(=O)[C@H](CCCNC(N)=O)NC(=O)[C@H](Cc2ccc(-c3ccccc3)cc2)NC(=O)[C@H](C(C)C)NC(=O)[C@H](Cc2c[nH]c3ccccc23)NC(=O)[C@H](CC(=O)O)NC(=O)[C@H](Cc2ccc(OCC(=O)O)cc2)NC(=O)[C@H](CN)NC(=O)CSC[C@@H](C(=O)N[C@@H](C)C(N)=O)NC(=O)[C@H]([C@@H](C)O)NC(=O)[C@H](C(C)C)NC(=O)[C@H](CC2CCCCC2)NC(=O)[C@H](Cc2c[nH]cn2)NC1=O [Compound 1590] ({CH2CO}-[Dap]Y(Carboxymethyl)DWV[Bip][Cit][Orn][dL]H[Cha]VTCA-NH2; thioether N-14),9
2,CC(C)C[C@@H]1NC(=O)[C@H](CCCCN)NC(=O)[C@@H](CC(C)C)NC(=O)[C@H](CCN)NC(=O)[C@H](Cc2cnc[nH]2)NC(=O)[C@H](Cc2ccc(-c3ccccc3)cc2)NC(=O)[C@H](C(C)C)NC(=O)[C@H](Cc2c[nH]c3ccccc23)NC(=O)[C@H](CC(=O)O)NC(=O)[C@H](Cc2ccc(O)cc2)NC(=O)[C@H](CC(N)=O)NC(=O)CSC[C@@H](C(=O)NCC(N)=O)NC(=O)[C@H]([C@@H](C)O)NC(=O)[C@H](C(C)C)NC1=O [Compound 1140] ({CH2CO}-NYDWV[Bip]H[Dab][dL]KLVTCG-NH2; thioether N-14),57.7
3,Cc1cccc(C[C@@H]2NC(=O)[C@H](CC(=O)O)NC(=O)[C@H](Cc3ccc(C(=O)O)cc3)NC(=O)[C@H](Cc3ccc(OCC(=O)O)cc3)NC(=O)CSC[C@@H](C(=O)N[C@@H](C)C(N)=O)NC(=O)[C@H]([C@@H](C)O)NC(=O)[C@H](C(C)C)NC(=O)[C@H](CC(C)C)NC(=O)[C@H](CCN)NC(=O)[C@@H](CC(C)C)NC(=O)[C@H](CCCN)NC(=O)[C@H](CCCNC(N)=O)NC(=O)[C@H](Cc3ccc(-c4ccccc4)cc3)NC(=O)[C@H](C(C)C)NC2=O)c1 [Compound 1251] ({CH2CO}-Y(Carboxymethyl)[Phe(4-COOH)]D[Phe(3-Me)]V[Bip][Cit][Orn][dL][Dab]LVTCA-NH2; thioether N-14),7.9
4,CC(C)C[C@@H]1NC(=O)[C@H](Cc2c[nH]c3ccccc23)NC(=O)[C@H](CC(=O)O)NC(=O)[C@H](Cc2ccc(C(=O)O)cc2)NC(=O)[C@H](Cc2ccc(OCC(=O)O)cc2)NC(=O)CSC[C@@H](C(=O)NCC(N)=O)NC(=O)[C@H](CO)NC(=O)[C@H](C(C)C)NC(=O)[C@H](CC(C)C)NC(=O)[C@H](CC(N)=O)NC(=O)[C@@H](CC(C)C)NC(=O)[C@H](CN)NC(=O)[C@H](C(C)C)NC(=O)[C@H](Cc2ccc(-c3ccccc3)cc2)NC1=O [Compound 1275] ({CH2CO}-Y(Carboxymethyl)[Phe(4-COOH)]DWL[Bip]V[Dap][dL]NLVSCG-NH2; thioether N-14),13.8
5,Cc1cccc(C[C@@H]2NC(=O)[C@H](CC(=O)O)NC(=O)[C@H](Cc3ccncc3)NC(=O)[C@H](CN)NC(=O)CSC[C@@H](C(=O)N[C@@H](C)C(N)=O)NC(=O)[C@H]([C@@H](C)O)NC(=O)[C@H](C(C)C)NC(=O)[C@H](CC(C)C)NC(=O)[C@H](CCN)NC(=O)[C@@H](CC(C)C)NC(=O)[C@H](CCCN)NC(=O)[C@H](C(C)C)NC(=O)[C@H](Cc3ccc(-c4ccccc4)cc3)NC(=O)[C@H](C(C)C)NC2=O)c1 [Compound 1223] ({CH2CO}-[Dap][4Pal]D[Phe(3-Me)]V[Bip]V[Orn][dL][Dab]LVTCA-NH2; thioether N-14),6.1
6,CC(C)C[C@H]1NC(=O)[C@H](CCCN)NC(=O)[C@H](CCC(=O)O)NC(=O)[C@H](Cc2ccc(-c3ccccc3)cc2)NC(=O)[C@H](C(C)C)NC(=O)[C@H](Cc2c[nH]c3ccccc23)NC(=O)[C@H](CC(=O)O)NC(=O)[C@H](Cc2ccc(OCC(=O)O)cc2)NC(=O)[C@H](CN)NC(=O)CSC[C@@H](C(=O)N[C@@H](C)C(N)=O)NC(=O)[C@H]([C@@H](C)O)NC(=O)[C@H](C(C)C)NC(=O)[C@H](Cc2ccccc2F)NC(=O)[C@H](CCN)NC1=O [Compound 1485] ({CH2CO}-[Dap]Y(Carboxymethyl)DWV[Bip]E[Orn][dL][Dab][Phe(2-F)]VTCA-NH2; thioether N-14),15.5
7,CC(C)C[C@@H]1NC(=O)[C@H](CCN)NC(=O)[C@@H](CC(C)C)NC(=O)[C@H](CCCN)NC(=O)[C@H](CCCNC(N)=O)NC(=O)[C@H](Cc2ccc(-c3ccccc3)cc2)NC(=O)[C@H](C(C)C)NC(=O)[C@H](Cc2c[nH]c3ccccc23)NC(=O)[C@H](CC(=O)O)NC(=O)[C@H](Cc2ccc(OCC(=O)O)cc2)NC(=O)[C@H](Cc2ccc(OCC(=O)O)cc2)NC(=O)CSC[C@@H](C(=O)N[C@@H](C)C(N)=O)NC(=O)[C@H]([C@@H](C)O)NC(=O)[C@H](C(C)C)NC1=O [Compound 1247] ({CH2CO}-Y(Carboxymethyl)Y(Carboxymethyl)DWV[Bip][Cit][Orn][dL][Dab]LVTCA-NH2; thioether N-14),19.7
